# Measurements: paper PMC5581245 (Electrophoresis, 2017)
# Test: Retention of glycopeptides on reversed phase C18 nanoLC-MS
# Type: physicochemical
# Conditions: difference between glycoform with and without fucose; RP C18 nanoLC, gradient 3
row,RRT difference introduced by fucose (RRT expressed as trx/trGlcNAc form),Sequence
1,0.00204,VVLHPNYSQVDIGLIK [bi-antennary glycoform of VVLHPNYSQVDIGLIK]
2,0.00096,VVLHPNYSQVDIGLIK [tri-antennary glycoform of VVLHPNYSQVDIGLIK]

row,Sequence,RRT difference introduced by fucose (RRT expressed as trx/trGlcNAc form)
1,VVLHPNYSQVDIGLIK [tetra-antennary glycoform of VVLHPNYSQVDIGLIK],0.00035
